Results on three molecules are retold here after EP1849784A1, “Indoline-substituted pyrazoline compounds, their preparation and use as medicaments” (LABORATORIOS DEL DR. ESTEVE, S.A., priority 2006, dated 2007).

One test deals with cannabinoid receptors. In words: Mouse tetrad model, antagonistic effect against Win 55212-2. It is filed as in vivo, Male NMRI mice. The following applies: for Antagonistic Effect in (%): against Win 55212-2 (1.25 mg/kg intravenous), substance injected 5 minutes before, tetrad parameter not specified; for Antagonism (%): summary table 1. An excerpt:
Substances with affinity for cannabinoid receptors are known to produce a wide range of pharmacological effects. It is also known that intravenous administration of a substance with affinity for cannabinoid receptors in mice produces analgesia , hypothermia, sedation and catalepsy. Individually, none of these effects can be considered as proof that a tested substance has affinity for cannabinoid-receptors, since all of these effects are common for various classes of centrally active agents. However, substances, which show all of these effects, i.e. substances that are active in this so-called tetrad model are considered to have affinity for the cannabinoid receptors. It has further been shown that cannabinoid receptor antagonists are higly effective in blocking the effects of a cannabinoid agonist in the mouse tetrad model.
The tetrad model is described, for example, in the publication of A. C. Howlett et al, International Union of Pharmacology XXVII. Classification of Cannabinoid Receptors, Pharmacol Rev 54,161-202, 2002 and David R. Compton et al., "In-vivo Characterization of a Specific Cannabinoid Receptor Antagonist (SR141716A) :Inhibition of Tetrahydrocannbinol- induced Responses and Apparent Agonist Activity", J. Pharmacol. Exp. Ther. 277 , 2, 586-594, 1996. The corresponding parts of the description are hereby incorporated by reference.
Male NMRI mice with a weight of 20-30 g (Harlan, Barcelona, Spain) are used in all of the following experiments.
Before testing in the behavioral procedures given below, mice are acclimatized to the experimental setting. Pre-Treatment control values are determined for analgesia hot plate latency (in seconds), rectal temperature, sedation and catalepsy.
In order to determine the agonistic activty of the substance to be tested, the mice are injected intravenously with the substance to be tested or the vehicle alone. 15 minutes after injection, latency in hot plate analgesia is measured. Rectal temperature, sedation and catalepsy are measured 20 minutes after injection.
In order to determine the antagonistic activity the identical procedure is used as for the determination of the agonistic effects, but with the difference that the substance to be evaluated for its antagonistic activity is injectected 5 minutes before the intravenous injection of 1.25 mg/kg Win-55,212 a known cannabinoid-receptor agonist.
The hot plate analgesia is determined according to the method described in Woolfe D. et al. "The evaluation of analgesic action of pethidine hydrochloride (Demerol)", J. Pharmacol. Exp. Ther. 80, 300-307,1944. The respective description is hereby incorporated by reference and forms part of the present disclosure.
The mice are placed on a hot plate (Harvard Analgesimeter) at 55 ± 0.5 °C until they show a painful sensation by licking their paws or jumping and the time for these sensations to occur is recorded. This reading is considered the basal value (B). The maximum time limit the mice are allowed to remain on the hot plate in absence of any painful response is 40 seconds in order to prevent skin damage. This period is called the cut-off time (PC).
Fifteen minuts after the administration of the substance to be tested, the mice are again placed on the hot plate and the afore described procedure is repeated. This period is called the post-treatment reading (PT).
The degree of analgesia is calculated from the formula: % MPE of Analgesia = (PT-B)/(PC-B) × 100 [formula] MPE = Maximum possible effect.
Sedation and ataxia is determined according to the method described in Desmet L. K. C. et al. "Anticonvulsive properties of Cinarizine and Flunarizine in Rats and Mice", Arzneim. -Forsch. (Frug Res) 25, 9, 1975. The respective description is hereby incorporated by reference and forms part of the present disclosure.
The chosen scoring system is • 0: no ataxia; • 1: doubful; • 2: obvious calmness and quiet; • 3 pronounced ataxia; prior to as well as after treatment. […]

A further test addresses T1, CB1-Receptor (Homo sapiens, UniProt P21554).
T1 construct: purchased Receptor Biology, Inc
In words: In-vitro determination of affinity to CB1-Receptor (radioligand binding). To be noted: transfected human CB1 receptors; radioligand [^3H]-CP55940; read-out: CB1-Receptor Radiologand:[^3H]-CP55940 IC50. The procedure:
The in-vitro determination of the affinity of the inventive quaternary ammonium salts of substituted pyrazoline compounds to CB1/CB2Rezeptors is carried out as described in the publication of Ruth A. Ross, Heather C. Brockie et al., "Agonist-inverse agonist characterization at CB1 and CB2 cannabinoid receptors of L-759633, L759656 and AM630", British Journal of Pharmacology, 126, 665-672, (1999), whereby the transfected human CB1 and CB2 receptors of Receptor Biology, Inc. are used. The radioligand used for both receptors is [^3H]-CP55940. The respective parts of the description are hereby incorporated by reference and forms part of the present disclosure.

T1 sequence (P21554 whole entry): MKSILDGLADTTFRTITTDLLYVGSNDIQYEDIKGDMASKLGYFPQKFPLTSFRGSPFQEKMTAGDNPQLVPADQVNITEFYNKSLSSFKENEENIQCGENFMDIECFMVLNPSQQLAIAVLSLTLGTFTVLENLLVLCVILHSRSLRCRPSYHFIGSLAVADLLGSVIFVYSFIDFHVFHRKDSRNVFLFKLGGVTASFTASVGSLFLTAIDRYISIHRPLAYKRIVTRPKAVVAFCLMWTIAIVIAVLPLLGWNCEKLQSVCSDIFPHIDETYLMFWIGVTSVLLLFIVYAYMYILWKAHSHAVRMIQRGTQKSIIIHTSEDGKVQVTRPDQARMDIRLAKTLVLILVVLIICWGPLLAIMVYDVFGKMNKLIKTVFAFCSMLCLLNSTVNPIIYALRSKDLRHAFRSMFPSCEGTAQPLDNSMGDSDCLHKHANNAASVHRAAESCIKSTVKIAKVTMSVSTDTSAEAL

Turning to `CC1Cc2ccccc2N1NC(=O)C1=NN(c2ccc(Cl)cc2Cl)C(c2ccc(Cl)cc2)C1` (stereo not shown) [Example 1, 5-(4-chlorophenyl)-1-(2,4-dichlorophenyl)-N-(2-methylindolin-1-yl)-4,5-dihydro-1H-pyrazole-3-carboxamide], in the test with cannabinoid receptors, the “Antagonistic Effect in (%)” value was found to be 33% and the “Antagonism (%)” value is recorded as 33%.
Consider `O=C(NN1CCc2ccccc21)C1=NN(c2ccc(Cl)cc2Cl)C(c2ccc(Cl)cc2)C1` (stereo not shown) [Example 2, 5-(4-chlorophenyl)-1-(2,4-dichlorophenyl)-N-(indolin-1-yl)-4,5-dihydro-1H-pyrazole-3-carboxamide], for which the IC50 on CB1-Receptor turned out to be 100 nM. In addition, in the test on cannabinoid receptors, the “Antagonistic Effect in (%)” value is reported as 65±15% and the “Antagonism (%)” value was determined as 65 ± 15%.
On to `O=C(NN1CCc2ccccc21)C1=NN(c2ccc(Cl)cc2Cl)C(c2ccc(Br)cc2)C1` (stereo not shown) [Example 6, 5-(4-bromophenyl)-1-(2,4-dichlorophenyl)-N-(indolin-1-yl)-4,5-dihydro-1H-pyrazole-3-carboxamide], for which, in the test with cannabinoid receptors, the “Antagonistic Effect in (%)” value was found to be 88 ± 10% and the “Antagonism (%)” value is recorded as 88 ± 10%.
